Laboratory results as given in patent publication US7183061B2, “Method of expressing Heliothis ecdysone receptor fusion protein” (Syngenta Limited, priority 1996, dated 2007).

How the values were obtained:
[1] = test system: glucocorticoid receptor; assay: Maize protoplast GUS reporter assay with pMF6HR1PAT (GR) and p221.9GRE6; assay type: cell-based, Human; conditions: maize protoplasts, reporter plus effector, concentration not given
Excerpt: The glucocorticoid receptor DNA for the Maize transient expression construct was produced via the polymerase chain reaction (PCR) of Human Fibrosarcoma cDNA (HT1080 cell line, ATCC#CC1121) library (Clontech see Hollenberg et al., 1985). The PCR approach taken was to amplify the 2.7 kb fragment encoding the glucocorticoid receptor in two segments. The first segment entails the N-terminal end up to and including the DNA binding domain while the second fragment begins with the hinge region (amino acid 500) thought to the end of the reading frame. Thus, the PCR primer for the N-terminal end segment was designed to contain an EcoRI site and the Kozak consensus sequence for translation initiation: GREcoRI 5′ […] 3′ (SEQ ID NO: 32).
The 2.7 kb EcoRI fragment was subcloned into the vector pMF6PAT EcoRI resulting in pMF6HGIPAT (FIG. 10).
Two reporter plasmids were made by inserting the into p221.9 or p221.10 BamHI/HindIII vectors two pairs or oligonucleotides containing six copies of the glucocorticoid response element (GRE). […]
Protoplasts were isolated from a maize suspension culture derived from BE70×A188 embryogenic callus material, which was maintained by subculturing twice weekly in MS0.5mod. […] The pellet was resuspended in wash buffer and the protoplasts were counted. […] Protein concentrations of tissue homogenates were determined by the Bio-Rad protein assay (Bradford, 1976). […]

[2] = test system: Spodoptera exigua; conditions: compared with Heliothis; cited from earlier work

SMILES: CC(C)CC[C@@H](O)[C@](C)(O)[C@H]1CC[C@@]2(O)C3=CC(=O)[C@]4(O)C[C@@H](O)[C@@H](O)C[C@]4(C)[C@H]3[C@H](O)C[C@]12C [Muristerone A]
- induced levels of expression [1]: does not lead to induced levels of expression

SMILES: CCc1ccc(C(=O)NN(C(=O)c2cc(C)cc(C)c2)C(C)(C)C)cc1 [RH5992, 3,5-dimethylbenzoic acid 1-1(1,1-dimethylethyl)-2(4-ethylbenzoyl)hydrazide]
- sensitivity of species [2]: more sensitive to RH5992 than Heliothis
